Legend:
[1] = tested on: ASTER domain from Aster-B; assay: 22-NBD-cholesterol binding competition with sterols, Aster-B; conditions: competitor 10 μM
Description: FIG. 1E: Aster-B334-562 (1-10 μM) was titrated with 10-3000 nM 22-NBD-cholesterol in PBS and fluorescent ligand-binding assays were performed. […] FIG. 1G: Aster-B334-562 was titrated with 22-NBD-cholesterol in the presence of vehicle, estradiol, or various hydroxycholesterol (HC) sterol competitors as indicated (10 μM). Results values are means±SD.
Fluorescent sterol binding assays were carried out as previously described (Petrescu et al., 2001; Wei et al., 2016) in 384-well black flat-bottom plates and equilibrated at room temperature for 1 hour. Measurements were made using a CLARIOstar (BMG LABTECH) microplate reader. The NBD fluorophore was excited with 1(ex)=470 nm and 1(em)=525 and plotted using Prism software. Dissociation constants (KD) were determined by nonlinear regression analysis of dose-response curves.
Aster-A (FIG. 15A), B (FIG. 15B) and C (FIG. 15C) was titrated with 22-NBD-cholesterol in the presence of vehicle or various HC sterol competitors as indicated (3 μM). […] Results values are means±SD.

[2] = target: ASTER domains from Aster-A, -B, and -C; assay: fluorescent NBD-cholesterol binding assay; design: species or system mouse; conditions: NBD-cholesterol 10-3,000 nM, ASTER-domain concentration constant; fit to a single exponential; average over the ASTER domains
Description: For binding and transfer studies Aster domains (Aster-A261-576, Aster-B224-560, Aster-C206-528) were expressed by baculovirus in Sf-9 insect cells with an N-terminal FLAG tag and a C-terminal 6× His Tag (“6× His Tag” disclosed as SEQ ID NO: 11). Proteins were expressed with P3 baculovirus for 48 hours at 27° C. Cells were recovered by centrifugation, lysed by sonication. Insoluble material was pelleted at 16,000×g for 40 minutes. Soluble protein was first purified using a Ni-NTA column (Qiagen, 30210) and eluted with 250 mM imidazole PBS buffer after extensive washing. Following dialysis proteins were purified using FLAG M2 affinity gel (Sigma A2220) columns and eluted with 100 μg/mL 1× FLAG peptide after washing for ten column volumes. Proteins were then either dialyzed to remove the FLAG peptide or purified further by size exclusion chromatography.
Fluorescent sterol binding assays were carried out as previously described (Petrescu et al., 2001; Wei et al., 2016) in 384-well black flat-bottom plates and equilibrated at room temperature for 1 hour. Measurements were made using a CLARIOstar (BMG LABTECH) microplate reader. The NBD fluorophore was excited with 1(ex)=470 nm and 1(em)=525 and plotted using Prism software. Dissociation constants (KD) were determined by nonlinear regression analysis of dose-response curves. […]

[3] = tested on: ASTER domain of Aster-B; assay: GST agarose assay for [^3H]cholesterol binding; design: species or system mouse; conditions: 150 nM protein, 0.003% Triton X-100 in PBS
Description: Reactions were carried out in binding buffer (0.003% Triton X-100 in 1× PBS) containing 150 nM of Aster-B ASTER protein and [^3H]cholesterol. After incubation for 30 min at room temperature, the mixture was incubated with pre-equilibrated of glutathione agarose resin (Pierce PI16100) at 4° C. for 2 h, then loaded onto a column and washed. The protein-bound [^3H]cholesterol was eluted with 10 mM GSH peptide and quantified by scintillation counting.

[4] = tested on: 3T3-L1 cells; assay: Aster-A ASO knockdown, SREBP-2 pathway and gene/protein expression; format: cell-based, murine
Description: FIG. 13A: Immunoblot analysis of membrane (top) and nuclear (bottom) protein levels in 3T3-L1 cells treated for 48 h with control or Aster-A-specific ASO and then for the indicated times with cyclodextrin-cholesterol. Calnexin was used as a membrane loading control and Lamin A/C as a nuclear loading control. FIG. 13B: Real-time PCR analysis of gene expression in 3T3-L1 cells treated for 48 h with control or Aster-A-specific ASO and then for the indicated times with cyclodextrin-cholesterol. ***p<0.001. FIG. 13C: Real-time PCR analysis of Abca1 expression in 3T3-L1 cells treated for 48 h with control or Aster-A-specific ASO and then for the indicated times with cyclodextrin-cholesterol. **p<0.01; ***p<0.001. FIG. 13D: Time course of cholesteryl ester formation in 3T3-L1 fibroblasts treated with control or Aster-A-specific ASO for 48 h. Cells were incubated with [^3H]oleate for the indicated time, CE was isolated by TLC, and the incorporation of label into CE quantified by scintillation counting and normalized to protein (mg). *p<0.05; ***p<0.001. FIG. 13E: Expression levels of the indicated genes in adrenal glands from WT and Aster-B KO mice (mean±SEM; N=6-8 per group). Statistical analysis was performed using Student's t-test. Values are means±SEM. *p<0.05; **p<0.01; ***p<0.001; ****p<0.0001. FIG. 13F: Immunoblot analysis of membrane (top) and nuclear (bottom) protein levels in adrenals from WT and Aster-B KO mice (n=5). Calnexin was used as a membrane loading control and Lamin A/C as a nuclear loading control. FIG. 13G: Serum cholesterol levels in WT and Aster-B KO mice that were fasting for five h (mean±SEM; N=6 per group). FIG. 13H: Serum corticosterone levels measured by ELISA in WT and Aster-B KO mice that were fed ad-lib or fasted overnight (˜16 hours). N=4 per group. Statistical analysis was performed using Student's t-test. Values are mean±SEM. *p<0.05; **p<0.01; ***p<0.001; ****p<0.0001.
Generation 2.5 constrained ethyl ASOs were synthesized as described previously (Seth et al., 2009). For in vitro knockdown studies, control or Aster-A ASO ([…] (SEQ ID NO: 13)) was used. Undifferentiated murine 3T3-L1 cells were plated in 10% FBS DMEM on Day 0. On Day 1 cells were washed and supplemented with 1% LPDS. Cells were then transfected with ASOs using Dharmafect 1 reagent per the manufacturer's recommendations for knockdown studies (Dharmacon, 50 nM final concentration). On Day 2, the medium was changed to fresh DMEM with 1% LPDS, simvastatin (5 μM) and mevalonate (50 μM). On Day 3 cells were treated as described in FIG. 7A and samples were collected. The rate of incorporation of [^3H]oleate into cholesteryl [^3H]oleate was performed on Day 3 as previously described (Goldstein et al., 1983).
The consequence of loss of Aster function for sterol movement from the PM to the ER in cultured cells was investigated. Since Aster-B expression is minimal in most cultured cell lines, knockdown Aster-A expression, which is abundant 3T3-L1 cells, was chosen. When ER cholesterol levels rise, cells respond first by suppressing SREBP-2 cleavage (thereby blocking sterol synthesis) and second by activating ACAT-dependent CE synthesis. Cholesterol movement to the ER following exogenous delivery was assessed by measuring two endpoints: 1. the activity of the SREBP-2 pathway and 2. the formation of cholesterol esters. […] The fact that some suppression of the SREBP-2 pathway at later time points was still observed even with Aster-A ASO was not unexpected, since vesicular sterol transport pathways were presumably still operative.

[5] = tested on: 3T3-L1 cells; assay: cholesteryl ester formation from [^3H]oleate after Aster-A ASO; format: cell-based, murine
Description: FIG. 13A: Immunoblot analysis of membrane (top) and nuclear (bottom) protein levels in 3T3-L1 cells treated for 48 h with control or Aster-A-specific ASO and then for the indicated times with cyclodextrin-cholesterol. Calnexin was used as a membrane loading control and Lamin A/C as a nuclear loading control. FIG. 13B: Real-time PCR analysis of gene expression in 3T3-L1 cells treated for 48 h with control or Aster-A-specific ASO and then for the indicated times with cyclodextrin-cholesterol. ***p<0.001. FIG. 13C: Real-time PCR analysis of Abca1 expression in 3T3-L1 cells treated for 48 h with control or Aster-A-specific ASO and then for the indicated times with cyclodextrin-cholesterol. **p<0.01; ***p<0.001. […] Cells were incubated with [^3H]oleate for the indicated time, CE was isolated by TLC, and the incorporation of label into CE quantified by scintillation counting and normalized to protein (mg). *p<0.05; ***p<0.001. […] FIG. 13H: Serum corticosterone levels measured by ELISA in WT and Aster-B KO mice that were fed ad-lib or fasted overnight (˜16 hours). […]
To assess the effects of Aster deficiency on CE production, cells were incubated in the presence of [^3H]oleate, treated with cyclodextrin-cholesterol complexes, and the incorporation of label into CE was quantified. […]

[6] = target: T1, Aster-B GRAM domain (Mus musculus, UniProt Q80TI0); assay: protein-lipid overlay (PIP Strips); format: binding; conditions: lipid strip, 100 pmol lipid per spot
T1 construct: B GRAM (Aster-B1-337) was conducted using PIP Strips (Echelon Biosciences); made in house; host or cells: Sf9 insect cells
T1 sequence (Q80TI0 41-377 limits assumed): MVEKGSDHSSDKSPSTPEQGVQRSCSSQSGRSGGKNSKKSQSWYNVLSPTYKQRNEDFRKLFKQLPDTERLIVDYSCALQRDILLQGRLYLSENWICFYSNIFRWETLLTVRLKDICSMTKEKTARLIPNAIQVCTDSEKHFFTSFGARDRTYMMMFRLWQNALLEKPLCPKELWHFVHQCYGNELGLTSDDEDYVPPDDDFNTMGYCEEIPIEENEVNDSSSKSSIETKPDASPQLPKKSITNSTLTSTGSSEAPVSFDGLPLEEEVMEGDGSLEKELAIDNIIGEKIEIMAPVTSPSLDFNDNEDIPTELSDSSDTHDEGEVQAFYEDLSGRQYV
Description: FIG. 9A: Protein-lipid overlay over purified mouse Aster-B GRAM domain with various phospholipid species. PA and PS correspond to phosphatidic acid and phosphatidylserine, respectively. FIG. 9A discloses “6xHis” as SEQ ID NO: 11. FIG. 9B: Purified Aster-B GRAM domain was incubated with sucrose-loaded heavy liposomes containing Dansyl-PE and 80-85% PC or 80-85% PS+/−5% Cholesterol. Liposomes were sedimented, washed, and analyzed by immunoblotting for associated Aster-B Gram protein (anti-His antibody). FIG. 9C: Localization of full-length and B ΔGRAM Aster-B-GFP constructs with plasma membrane (CellMask stain) expressed in HeLa cells in the presence or absence of cholesterol loading imaged by live cell confocal microscopy. […] FIG. 9E: Quantification of Aster-B PH-EGFP intensity in the TIRF plane upon cholesterol loading (left panel; n=2-3 cells, error bars+/−SD). […] TIRF videos recorded 5 slices (slices 3-5 were used to calculate FO) before cholesterol addition. […]
The Aster proteins contain an N-terminal GRAM domain, a structural motif related to the pleckstrin homology domain that is found in glucosyltransferases, Rab-like GTPase activators, myotubularins, and other membrane-associated proteins. […] Given that phosphatidylserine is highly enriched in the inner leaflet of the PM, it was further determined if the Aster-B GRAM domain was associated with phosphatidylserine-containing liposomes.

[7] = tested on: Gramd1b; assay: Gramd1b gene expression by real-time PCR in macrophages; format: cell-based; conditions: wild-type (WT) but not LXR-null mouse macrophages; 1 μM, 16 h
From the text: Values are means±SEM. Results are representative of three independent experiments. […] Input (Ctrl) served as a control for LXR enrichment. […] FIG. 1D: […] Values are means±SEM. FIG. 1E: […] FIG. 1F: […] Results values are means±SD. FIG. 1G: […] Results values are means±SD. FIG. 1H: […] Values are means±SEM. Total RNA was isolated using TRIzol reagent (Invitrogen) and reverse transcribed with the iScript cDNA synthesis kit (Biorad). cDNA was quantified by real-time PCR using SYBR Green Master Mix (Diagenode) on an ABI 7900 instrument. Gene expression levels were determined by using a standard curve. Each gene was normalized to the housekeeping gene 36B4 and was analyzed in duplicate. Primers used for real-time PCR are available upon request. […] Gramd1b was induced by a synthetic LXR agonist in wild-type (WT) but not LXR-null mouse macrophages (FIG. 1A). […] Gramd1b belongs to a family of highly-conserved genes, which have been designated Gramd1a, -b, and -c in databases. One-to-one orthologs of Gramd1b are present in all vertebrate classes (FIG. 2A). The predicted amino acid sequence of the human protein is 78% identical to that from Oreochromis niloticus (nile tilapia). These genes have not previously been characterized; their structures are incorrectly annotated in databases; and the function of their protein products is unknown. […] The protein products are referred to as Aster-A, -B, and -C.

In the case of `CC(C)CC[C@H](O)[C@@H](C)[C@H]1CC[C@H]2[C@@H]3CC=C4C[C@@H](O)CC[C@]4(C)[C@H]3CC[C@]12C` [22S-hydroxycholesterol], the “inhibition of binding of NBD-cholesterol to the ASTER domain from Aster-B” value (“inhibition of binding of NBD-cholesterol” for short) [1] is reported as “comparatively poor competitors”.
With `C[C@H](CNc1ccc([N+](=O)[O-])c2nonc12)[C@H]1CC[C@H]2[C@@H]3CC=C4C[C@@H](O)CC[C@]4(C)[C@H]3CC[C@]12C` [NBD-cholesterol, 22-NBD-cholesterol] the Kd [2] was under 100 nM.
`CC(C)CCC[C@@H](C)[C@H]1CC[C@H]2[C@@H]3CC=C4C[C@@H](O)CC[C@]4(C)[C@H]3CC[C@]12C` [[^3H]cholesterol] was tested, and the “direct binding to the ASTER domain of Aster-B” value [3] was “direct binding”.
With `CC(C)CCC[C@](C)(O)[C@H]1CC[C@H]2[C@@H]3CC=C4C[C@@H](O)CC[C@]4(C)[C@H]3CC[C@@]21C` [20α-HC, 20α-hydroxycholesterol] the “inhibition of binding of NBD-cholesterol” value [1] was “inhibited”.
With “Aster-A-specific ASO: Generation 2.5 constrained ethyl ASO, GTGGAATTTATTCAGG (SEQ ID NO: 13) (Generation 2.5 constrained ethyl (cEt) ASO, modification pattern not given here)” the Gramd1a expression ([4]; ASO 50 nM, 48 h) was “nearly abolished”, the LDLR protein levels ([4]; ASO 48 h) was “increased” and the SREBP-2 processing ([4]; ASO 48 h) was “induction”. For the same molecule, the “expression of SREBP-2 target genes, including Hmcgr, and Hmgcs” value ([4]; ASO 48 h) was “increased”, the “ability of exogenously added cyclodextrin-cholesterol to suppress SREBP-2 processing” value ([4]; Aster-A silenced cells) was “clearly delayed” and the “expression of Abca1 (protein and mRNA)” value ([4]; absence of Aster-A) was “reciprocally reduced”. The “rate at which cholesterol delivered to the PM was incorporated into CE” value ([5]; [^3H]oleate, cyclodextrin-cholesterol) was “markedly slower” and the “amount of CE formed relative to control cells” value ([5]; two hours after cholesterol addition) was “less than 25%”.
In the case of `CC(C)CCC[C@@H](C)[C@H]1CC[C@H]2[C@@H]3CC=C4C[C@@H](O)CC[C@]4(C)[C@H]3CC[C@]12C` [cholesterol], the “inhibition of binding of NBD-cholesterol” value [1] is reported as “inhibited”.
`CC(C)CCC[C@@H](C)[C@H]1CC[C@H]2[C@@H]3CC=C4[C@@H](O)[C@@H](O)CC[C@]4(C)[C@H]3CC[C@]12C` [4β-hydroxycholesterol] was tested, and the “inhibition of binding of NBD-cholesterol” value [1] was “comparatively poor competitors”.
In the case of “phosphatidic acid [phosphatidic acid (PA)]”, the “interaction with purified Aster-B GRAM domain” value [6] is reported as “interacted strongly”.
In the case of `CC(C)CC[C@@H](O)[C@@H](C)[C@H]1CC[C@H]2[C@@H]3CC=C4C[C@@H](O)CC[C@]4(C)[C@H]3CC[C@]12C` [22R-HC, 22-R-hydroxycholesterol], the “inhibition of binding of NBD-cholesterol” value [1] is reported as “inhibited”.
In the case of `CC(C)CCC[C@@H](C)[C@H]1CC[C@H]2[C@@H]3[C@@H](O)C=C4C[C@@H](O)CC[C@]4(C)[C@H]3CC[C@]12C` [7β-hydroxycholesterol], the “inhibition of binding of NBD-cholesterol” value [1] is reported as “comparatively poor competitors”.
For `O=C(O)Cc1cccc(OCCCN(Cc2cccc(C(F)(F)F)c2Cl)CC(c2ccccc2)c2ccccc2)c1` [synthetic LXR agonist, GW3965], the Gramd1b expression [7] was “induced”.
In the case of `C[C@H](CCCC(C)(C)O)[C@H]1CC[C@H]2[C@@H]3CC=C4C[C@@H](O)CC[C@]4(C)[C@H]3CC[C@]12C` [25-HC, 25-hydroxycholesterol], the “inhibition of binding of NBD-cholesterol” value [1] is reported as “inhibited”.

From US20210255205A1, “COMPOSITIONS AND METHODS FOR TREATING METABOLIC DISEASE” (THE REGENTS OF THE UNIVERSITY OF CALIFORNIA, priority 2018, published 2021)
